Measured values as given in patent US20240294533A1, “2-(HET)ARYL-SUBSTITUTED CONDENSED HETEROCYCLE DERIVATIVES AS PEST CONTROL AGENTS” (Bayer Aktiengesellschaft, priority 2021, published 2024).
Where two headings read alike, the source gives them in different places.

Key:
[1] = log P by HPLC on reversed-phase column (C18); type: physicochemical; settings: LC-UV
Experimental: log P Values The log P values were determined according to EEC Directive 79/831 Annex V.A8 by HPLC (high-performance liquid chromatography) on a reversed-phase column (C18) using the following methods: ^[a] […] Calibration was carried out using straight-chain alkan-2-ones (having 3 to 16 carbon atoms) with known log P values. The values between successive alkanones are determined by linear regression.

[2] = system: Diabrotica balteata; assay: Diabrotica balteata spray test; type: in vivo; settings: wheat grains, after 7 days; for pest or weed control at 100 g/ha / pest or weed control at 125 g/ha: Diabrotica balteata, 168 h, read-out: efficacy; for pest or weed control at 125 g/ha: 125 g/ha (=40 μg/cavity)
Description: Diabrotica balteata—Spray Test Solvent: 78 parts by weight of acetone • • 1.5 parts by weight of dimethylformamide Emulsifier: alkylaryl polyglycol ether An appropriate active ingredient formulation is produced by dissolving 1 part by weight of active ingredient with the stated parts by weight of solvent and making the solution up to the desired concentration with water containing an emulsifier concentration of 1000 ppm. Further test concentrations are produced by diluting the formulation with emulsifier-containing water. Pre-swollen wheat grains (Triticum aestivum) are incubated in a multiwell plate filled with agar and a little water for one day (5 seed grains per cavity). The germinated wheat grains are sprayed with an active ingredient formulation of the desired concentration. Subsequently, each cavity is infected with 10-20 beetle larvae of Diabrotica balteata. After 7 days, efficacy in % is determined. 100% means that all wheat plants have grown as in the untreated, uninfected control; 0% means that no wheat plant has grown.

[3] = system: Meloidogyne incognita; assay: Meloidogyne incognita test; type: in vivo; settings: lettuce, gall formation after 14 days; for pest or weed control at 20 ppm: Meloidogyne incognita, 336 h, read-out: nematicidal efficacy
Description: Meloidogyne incognita Test Solvent: 125.0 parts by weight of acetone An appropriate active ingredient formulation is produced by mixing 1 part by weight of active ingredient with the stated amount of solvent and diluting the concentrate to the desired concentration with water. Vessels are filled with sand, active ingredient solution, an egg/larvae suspension of the southern root-knot nematode (Meloidogyne incognita) and lettuce seeds. The lettuce seeds germinate and the plants develop. The galls develop on the roots. After 14 days, the nematicidal efficacy in % is determined by the formation of galls. 100% means that no galls were found; 0% means that the number of galls on the treated plants corresponds to the untreated control.

[4] = system: Spodoptera frugiperda; assay: Spodoptera frugiperda spray test (maize leaf discs); type: in vivo; settings: after 7 days; for pest or weed control at 100 g/ha: Spodoptera frugiperda, foliar, 168 h, read-out: efficacy
Description: Spodoptera Frusiperda—Spray Test Solvent: 78.0 parts by weight of acetone • • 1.5 parts by weight of dimethylformamide Emulsifier: alkylaryl polyglycol ether An appropriate active ingredient formulation is produced by dissolving 1 part by weight of active ingredient with the stated parts by weight of solvent and making the solution up to the desired concentration with water containing an emulsifier concentration of 1000 ppm. Further test concentrations are produced by diluting the formulation with emulsifier-containing water. Leaf discs of maize (Zea mays) are sprayed with an active ingredient formulation of the desired concentration and, after drying, populated with caterpillars of the fall armyworm (Spodoptera frugiperda). After 7 days, efficacy in % is determined. 100% means that all the caterpillars have been killed; 0% means that no caterpillar has been killed.

[5] = system: Nezara viridula; assay: Nezara viridula spray test (infected barley plants sprayed); type: in vivo; settings: 100 g ai/ha, after 4 days
Description: (§1) Nezara viridula—Spray Test Solvent: 52.5 parts by weight of acetone • 7 parts by weight of dimethylformamide Emulsifier: alkylaryl polyglycol ether An appropriate active ingredient formulation is produced by dissolving 1 part by weight of active ingredient with the stated parts by weight of solvent and making the solution up to the desired concentration with water containing an emulsifier concentration of 1000 ppm. Further test concentrations are produced by diluting the formulation with emulsifier-containing water. If the addition of ammonium salts or/and penetrants is required, these are each added in a concentration of 1000 ppm to the formulation solution. Barley plants (Hordeum vulgare) infected with larvae of the Southern green shield bug (Nezara viridula) are sprayed with an active ingredient formulation of the desired concentration. After 4 days, efficacy in % is determined. 100% means that all of the shield bugs have been killed; 0% means that none of the shield bugs have been killed.

[6] = system: Nezara viridula; assay: Nezara viridula spray test (plants sprayed, then infected); type: in vivo; settings: 500 g/ha, barley plants, after 4 days
Description: as §1, with “78.0” for “52.5”, “• 1.5” for “7”, “water.” for “water. If the addition of ammonium salts or/and penetrants is required, these are each added in a concentration of 1000 ppm to the formulation solution.”, “vulgare) are sprayed with an active ingredient formulation of the desired concentration and are” for “vulgare)”, “viridula).” for “viridula) are sprayed with an active ingredient formulation of the desired concentration.”

[7] = system: Myzus persicae; assay: Myzus persicae oral test; type: in vivo; settings: 4 ppm, after 5 days
Experimental: Myzus persicae—Oral Test Solvent: 100 parts by weight of acetone An appropriate active ingredient formulation is produced by dissolving 1 part by weight of active ingredient with the specified parts by weight of solvent and making the solution up to the desired concentration with water. 50 μl of the active ingredient formulation is transferred into microtitre plates and made up to a final volume of 200 μl with 150 μl of IPL41 insect medium (33%+15% sugar). Subsequently, the plates are sealed with parafilm, which a mixed population of green peach aphids (Myzus persicae) within a second microtitre plate is able to puncture and imbibe the solution. After 5 days, efficacy in % is determined. 100% means that all the aphids have been killed; 0% means that no aphids have been killed.

[8] = neutral range, ammonium acetate/acetonitrile, read-out: log P (neutral)

Row | SMILES | pest or weed control at 100 g/ha [4] [%] | pest or weed control at 100 g/ha ([2]; 100 g/ha (=32 μg/cavity)) [%] | pest or weed control at 20 ppm [3] [%] | also measured
1 | Cn1c(-c2nc(F)ccc2F)nc2cc(C(F)(F)C(F)(F)F)cnc21 [2-(3,6-Difluoro-2-pyridyl)-3-methyl-6-(1,1,2,2,2-pentafluoroethyl)imidazo[4,5-b]pyridine] | – | – | – | chromatographic logP [1, 8]: 3.3
2 | CCS(=O)(=O)c1ccc(-n2ncn(-c3cccc(Br)c3)c2=O)nc1-c1nc2cc(C(F)(F)C(F)(F)F)nnc2n1C [Example I-15] | 100 | – | – | efficacy ([2]; 100 g/ha (=32 μg/cavity)): 100%; nematicidal efficacy ([3]; 20 ppm): 100%; efficacy [5]: 100%
3 | CCS(=O)(=O)c1ccc(-n2ncn(-c3ccc(I)cc3)c2=O)nc1-c1nc2cc(C(F)(F)C(F)(F)F)nnc2n1C [Example I-09] | 100 | 100 | 90 | –
4 | CCS(=O)(=O)c1ccc(-n2ncn(-c3ccc(I)cc3)c2=O)nc1-c1nc2cc(C(F)(F)C(F)(F)F)cnc2n1C [Example I-20] | 100 | – | 90 | pest or weed control at 125 g/ha [2]: 100%; efficacy [5]: 100%
5 | CCS(=O)(=O)c1ccc(-n2ncn(-c3cccc(C4(C#N)CC4)c3)c2=O)nc1-c1nc2cc(C(F)(F)C(F)(F)F)cnc2n1C [Example I-04] | 100 | 100 | – | efficacy [6]: 100%
6 | CCS(=O)(=O)c1ccc(-n2ncn(-c3ccc(Cl)c(C#N)c3)c2=O)nc1-c1nc2cc(C(F)(F)C(F)(F)F)nnc2n1C [Example I-08] | 100 | 100 | 100 | –
7 | CCS(=O)(=O)c1ccc(-n2ncn(-c3ccc(F)cc3)c2=O)nc1-c1nc2cc(C(F)(F)C(F)(F)F)nnc2n1C [Example I-10] | 100 | 100 | 100 | –
8 | CCSc1ccc(F)nc1-c1nc2cc(C(F)(F)C(F)(F)F)cnc2n1C [2-(3-Ethylsulfanyl-6-fluoro-2-pyridyl)-3-methyl-6-(1,1,2,2,2-pentafluoroethyl)imidazo[4,5-b]pyridine] | – | – | – | chromatographic logP ([1]; acidic range, formic acid/acetonitrile, read-out: log P (acidic)): 4.05
9 | CCS(=O)(=O)c1ccc(F)nc1-c1nc2cc(C(F)(F)C(F)(F)F)cnc2n1C [2-(3-Ethylsulfonyl-6-fluoro-2-pyridyl)-3-methyl-6-(1,1,2,2,2-pentafluoroethyl)imidazo[4,5-b]pyridine] | – | – | – | chromatographic logP [1, 8]: 3.33
10 | CCS(=O)(=O)c1ccc(-n2ncn(-c3ccc(C#N)c(Cl)c3)c2=O)nc1-c1nc2cc(C(F)(F)C(F)(F)F)cnc2n1C [Example I-17] | 100 | 100 | 90 | efficacy [7]: 90%
11 | CCS(=O)(=O)c1ccc(-n2ncn(-c3ccc(Cl)c(C#N)c3)c2=O)nc1-c1nc2cc(C(F)(F)C(F)(F)F)cnc2n1C [Example I-07] | 100 | 100 | 100 | efficacy [6]: 100%
12 | CCS(=O)(=O)c1ccc(-n2ncn(-c3ccc(C#N)c(Cl)c3)c2=O)nc1-c1nc2cc(C(F)(F)C(F)(F)F)nnc2n1C [Example I-05] | 100 | 100 | 100 | –
13 | CCS(=O)(=O)c1ccc(-n2ncn(-c3cccc(Cl)c3)c2=O)nc1-c1nc2cc(C(F)(F)C(F)(F)F)cnc2n1C [Example I-19] | 100 | 100 | – | –
14 | CCS(=O)(=O)c1ccc(-n2ncn(-c3ccc(/C=N/OC)cc3)c2=O)nc1-c1nc2cc(C(F)(F)C(F)(F)F)cnc2n1C [Example I-24] | 100 | 100 | – | –
15 | CCS(=O)(=O)c1ccc(-n2ncn(-c3ccc(C4(C#N)CC4)cc3)c2=O)nc1-c1nc2cc(C(F)(F)C(F)(F)F)nnc2n1C [Example I-21] | 100 | – | 90 | pest or weed control at 125 g/ha [2]: 100%; efficacy [7]: 100%
16 | CCS(=O)(=O)c1ccc(-n2ncn(-c3cccc(C4(C#N)CC4)c3)c2=O)nc1-c1nc2cc(C(F)(F)C(F)(F)F)nnc2n1C [Example I-01] | 100 | 100 | – | –
17 | CCS(=O)(=O)c1ccc(-n2ncn(-c3cccc(Br)c3)c2=O)nc1-c1nc2cc(C(F)(F)C(F)(F)F)nnc2n1C [Example I-11] | – | 100 | 100 | efficacy ([4]; 100 g/ha): 100%; efficacy [5]: 90%
18 | CCS(=O)(=O)c1ccc(-n2ncn(-c3cccc(Cl)c3)c2=O)nc1-c1nc2cc(C(F)(F)C(F)(F)F)nnc2n1C [Example I-13] | 100 | 100 | – | efficacy [5]: 100%
19 | CCS(=O)(=O)c1ccc(-n2ncn(-c3cccc(I)c3)c2=O)nc1-c1nc2cc(C(F)(F)C(F)(F)F)cnc2n1C [Example I-18] | 100 | 100 | – | efficacy [5]: 90%
20 | CCS(=O)(=O)c1ccc(-n2ncn(-c3cccc(F)c3)c2=O)nc1-c1nc2cc(C(F)(F)C(F)(F)F)cnc2n1C [Example I-16] | 100 | 100 | 100 | –
